We go through four compounds from publication PMC4961704, “Synthesis and Biological Evaluation of Thiophene-Based Cannabinoid Receptor Type 2 Radiotracers for PET Imaging” (Frontiers in Neuroscience, 2016).

Data set [1] has as its target T1, hCB2 (Homo sapiens, UniProt P34972).
T1 construct: purchased PerkinElmer; host or cells: CHO-K1 cells stably transfected
Put plainly: Competitive in vitro binding assay with [3H]CP-55,940, membranes of CHO-K1 cells stably transfected with hCB2. The settings on record: displacement of [3H]CP-55,940 (1.4 nM), 30°C, 90 min; three independent experiments in triplicate; Cheng-Prusoff.
Description: (§2) A dilution series ranging from 1 pM to 1 mM in assay buffer (50 mM TRIS, 1 mM EDTA, 3 mM MgCl2 and 0.05% bovine serum albumin, pH adjusted to 7.4) was prepared for each ligand to be tested. […] The samples were incubated at 30°C for 90 min and subsequently diluted with ice cold assay buffer (3 mL) in order to be vacuum-filtered through Whatman GF/C filters (pre-treated with aq. polyethylenimine, 0.05%). Each sample was washed twice with ice cold assay buffer (3 mL) and filtered again. After addition of scintillation cocktail (Ultima Gold, Perkin Elmer), radioactivity was measured using a Beckman LS 6500 Liquid Scintillation Counter. IC50 mean values were calculated after performing three independent experiments, each as triplicate.
(§3) Binding affinity studies were performed using membranes stably transfected with human CB1 and CB2, respectively.

Data set [2] deals with T2, hCB1 (Homo sapiens, UniProt P21554).
T2 construct: purchased PerkinElmer; host or cells: CHO-K1 cells stably transfected
Nature of the data set: Competitive in vitro binding assay with [3H]CP-55,940, membranes of CHO-K1 cells stably transfected with hCB1. The settings on record: displacement of [3H]CP-55,940 (1.4 nM), 30°C, 90 min; three independent experiments in triplicate; Cheng-Prusoff.
Description: as §2, §3

In data set [3] the target is T1, hCB2. Set-up: method as in earlier work. The settings on record: known ligands, entry 1–3; ref Showalter et al., 1996; Lan et al., 1999; Valenzano et al., 2005; cited from earlier work.
For data set [4], the target named is T2, hCB1. Set-up: method as in earlier work. The conditions noted are these: known ligands, entry 1–3; ref Showalter et al., 1996; Lan et al., 1999; Valenzano et al., 2005; cited from earlier work.
Data set [5] deals with CB2-positive mouse spleen tissue. Nature of the data set: In vitro autoradiography on mouse spleen tissue sections. Format: binding, CD1 mouse. The conditions noted are these: 5 nM radiotracer; baseline vs blockade with 10 μM GW405833; n = 2. As to the method: (§1) Autoradiography was performed on rat/mouse spleen tissue. Sections were prepared in 20 μm thickness using a cryostat (Cryo-Star NX 50; Thermo Scientific). The tissue slices were adsorbed to SuperFrost Plus (Menzel) slides and stored at −20°C until use. After thawing on ice for 10 min, sections were pre-incubated in the assay buffer containing 50 mM TRIS, 5 mM MgCl2, 2.5 mM EDTA, and 0.5% BSA (pH 7.4). […] In order to test for specificity toward CB2, a solution containing both radiotracer and an excess of CB2 specific partial agonist GW405833 (10 μM) was prepared and added to the tissue. The tissue slices were washed twice with assay buffer (each 2 min) and twice with distilled water (each 5 s) on ice, air dried, and exposed to a phosphor imager plate for a period of 25 min. The plate was scanned using a BAS5000 reader (Fujifilm, Dielsdorf, CH).

In data set [6] the test system is CB2-positive rat spleen tissue. Put plainly: In vitro autoradiography on rat spleen tissue sections. The settings on record: 5 nM radiotracer; baseline vs blockade with 10 μM GW405833; n = 2. Format: binding, Wistar rat. As to the method:
as §1

Another data set has as its system CB2-positive spleen. Put plainly: In vivo PET/CT of the spleen region after tail-vein injection. Set-up: species or system Wistar rat. Here is the method: Under baseline conditions, radiotracer accumulation was recorded in the region of the spleen in dynamic PET acquisition mode over 60 min (n = 2). During this whole time period rats were kept under anesthesia, body temperature and respiratory rate were constantly monitored. Under blockade conditions, 1.5 mg/kg GW405833 was injected shortly before radiotracer application in two of the four rats. Acquired PET data were reconstructed as user-defined time frames with a voxel size of 0.3875 × 0.3875 × 0.775 mm. For anatomical orientation, CT scans were acquired after each PET scan. Images were evaluated with PMOD v3.4 (PMOD Technologies Inc., Zurich, CH) software. Regions of interest (spleen, liver, and muscle) were drawn manually using the PMOD fusion tool. Time activity curves (TACs) for spleen, liver and muscle were expressed as standardized uptake values (SUV) which are the decay-corrected radioactivity per cm^3 divided by the injected radioactivity dose per gram of body weight.

“Also recorded” adds a separate entry of the source. Where two headings read alike, the source gives them in different places.

T1 sequence (P34972 whole entry): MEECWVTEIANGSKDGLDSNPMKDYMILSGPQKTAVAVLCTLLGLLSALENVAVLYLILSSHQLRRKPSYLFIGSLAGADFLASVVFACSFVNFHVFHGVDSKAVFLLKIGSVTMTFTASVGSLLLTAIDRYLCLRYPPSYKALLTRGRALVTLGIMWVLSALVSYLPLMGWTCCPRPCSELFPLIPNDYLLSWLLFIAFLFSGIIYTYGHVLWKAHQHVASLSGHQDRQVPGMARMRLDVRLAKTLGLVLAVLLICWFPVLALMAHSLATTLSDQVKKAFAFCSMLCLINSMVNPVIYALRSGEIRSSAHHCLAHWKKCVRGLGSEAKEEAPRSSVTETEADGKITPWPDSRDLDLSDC
T2 sequence (P21554 whole entry): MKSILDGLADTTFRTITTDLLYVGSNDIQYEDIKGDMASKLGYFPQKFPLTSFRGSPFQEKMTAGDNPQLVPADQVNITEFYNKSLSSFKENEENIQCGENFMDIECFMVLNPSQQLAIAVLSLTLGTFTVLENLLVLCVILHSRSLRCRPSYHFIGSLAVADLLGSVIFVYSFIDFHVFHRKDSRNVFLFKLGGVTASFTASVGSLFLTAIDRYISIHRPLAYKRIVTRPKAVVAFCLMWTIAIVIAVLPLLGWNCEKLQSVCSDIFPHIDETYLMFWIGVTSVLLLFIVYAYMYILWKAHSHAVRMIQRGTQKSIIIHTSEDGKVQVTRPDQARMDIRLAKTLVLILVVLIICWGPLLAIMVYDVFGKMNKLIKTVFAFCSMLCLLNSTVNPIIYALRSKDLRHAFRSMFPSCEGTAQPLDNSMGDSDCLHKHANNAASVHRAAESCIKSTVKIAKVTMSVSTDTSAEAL

With `CCCc1c(C)sc(NC(=O)C23CC4CC(CC(C4)C2)C3)c1C(=O)OC` [AAT-778, Methyl 2-(adamantane-1-carboxamido)-5-methyl-4-propylthiophene-3-carboxylate], the Ki at hCB2 [1] was 0.0043 ± 0.0007 µM; on hCB1 [2], 1.1 ± 0.1 µM.
Take `COc1ccc2c(c1)c(CCN1CCOCC1)c(C)n2C(=O)c1cccc(Cl)c1Cl` [GW405833]: the Ki at hCB2 [3] is 0.0039 ± 0.0016 µM; at hCB1 [4], 4.77 ± 1.68 µM.
With `CCCc1c(C)sc(NC(=O)C23CC4CC(CC(C4)C2)C3)c1C(=O)O[11CH3]` [[^11C]AAT-778], the “specificity of binding to mouse spleen tissue (autoradiography)” value in data set [5] was “No blocking effect; also recorded: high unspecific binding”. Moreover, in data set [6], the “specificity of binding to rat spleen tissue (autoradiography)” value is “No blocking effect; also recorded: high unspecific binding”.
Turning to `[11CH3]OC(=O)c1c(NC(=O)C23CC4CC(CC(O)(C4)C2)C3)sc2c1CCCC2` [[^11C]AAT-015], the “specificity of binding to mouse spleen tissue (autoradiography)” value in data set [5] is “high unspecific binding”. The “specificity of binding to rat spleen tissue (autoradiography)” value in data set [6] was “high unspecific binding”. Besides, the “spleen uptake of radiotracer (PET)” value in the data set on CB2-positive spleen (baseline, 10–15 MBq i.v., 0–60 min post injection) was “no accumulation; also recorded: low uptake”. Besides, in the data set with CB2-positive spleen (blockade with 1.5 mg/kg GW405833 shortly before tracer, 60 min), the “spleen uptake, TACs baseline vs blockade (PET)” value is recorded as “no difference”.
